According to PubChem BioAssay (NCI):
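96-well plates; 48 h exposure; 5 concentrations. Endpoints by linear interpolation between flanking doses. Not reached: highest tested concentration assigned. GI50 is the concentration that inhibits growth by half. TGI: total growth inhibition.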

Columns and labels:
Assay in all cases: inhibition of tumour cell growth, NCI panel, 48 h
SK-OV-3 ovarian = system: SK-OV-3 ovarian
RXF 393 renal = system: RXF 393 renal
U251 CNS = system: U251 CNS
UACC-62 melanoma = system: UACC-62 melanoma
HOP-18 NSCLC = system: HOP-18 NSCLC
SK-MEL-2 melanoma = system: SK-MEL-2 melanoma
OVCAR-5 ovarian = system: OVCAR-5 ovarian
SW-620 colon = system: SW-620 colon
SF-295 CNS = system: SF-295 CNS
DMS 114 small cell lung = system: DMS 114 small cell lung
DLD-1 colon = system: DLD-1 colon
SN12C renal = system: SN12C renal
CCRF-CEM leukemia = system: CCRF-CEM leukemia
UACC-257 melanoma = system: UACC-257 melanoma
LOX IMVI melanoma = system: LOX IMVI melanoma
A498 renal = system: A498 renal
M19-MEL melanoma = system: M19-MEL melanoma
HT29 colon = system: HT29 colon
SNB-78 CNS = system: SNB-78 CNS
XF 498 CNS = system: XF 498 CNS
K-562 leukemia = system: K-562 leukemia
SF-539 CNS = system: SF-539 CNS
LXFL 529 NSCLC = system: LXFL 529 NSCLC
HCT-116 colon = system: HCT-116 colon
HL-60(TB) leukemia = system: HL-60(TB) leukemia
HCC-2998 colon = system: HCC-2998 colon
DMS 273 small cell lung = system: DMS 273 small cell lung
SNB-75 CNS = system: SNB-75 CNS
CAKI-1 renal = system: CAKI-1 renal

CC[C@@]1(O)C(=O)OCc2c1cc1n(c2=O)Cc2cc3c([N+](=O)[O-])c(O)ccc3nc2-1
GI50 (SK-OV-3 ovarian): 0.614 µM | TGI (SK-OV-3 ovarian): 25 µM | GI50 (RXF 393 renal): 0.328 µM | TGI (RXF 393 renal): 2.05 µM | GI50 (U251 CNS): 0.0405 µM | TGI (U251 CNS): 1.22 µM | GI50 (UACC-62 melanoma): 0.0255 µM | TGI (UACC-62 melanoma): 0.265 µM | GI50 (HOP-18 NSCLC): 0.758 µM | TGI (HOP-18 NSCLC): > 100 µM | GI50 (SK-MEL-2 melanoma): 2.27 µM | TGI (SK-MEL-2 melanoma): 6.67 µM | GI50 (OVCAR-5 ovarian): 0.879 µM | TGI (OVCAR-5 ovarian): 11.6 µM | GI50 (SW-620 colon): 0.416 µM | TGI (SW-620 colon): 33.8 µM | GI50 (SF-295 CNS): 0.155 µM | TGI (SF-295 CNS): 2.2 µM | GI50 (DMS 114 small cell lung): 0.0601 µM | TGI (DMS 114 small cell lung): 1.2 µM | GI50 (DLD-1 colon): 9.41 µM | TGI (DLD-1 colon): > 100 µM | GI50 (SN12C renal): 0.057 µM | TGI (SN12C renal): 4.77 µM | GI50 (CCRF-CEM leukemia): < 0.026 µM | TGI (CCRF-CEM leukemia): 0.469 µM | GI50 (UACC-257 melanoma): 1.19 µM | TGI (UACC-257 melanoma): 16 µM | GI50 (LOX IMVI melanoma): 0.0552 µM | TGI (LOX IMVI melanoma): 0.91 µM | GI50 (A498 renal): 0.915 µM | TGI (A498 renal): 5.66 µM | GI50 (M19-MEL melanoma): 0.655 µM | TGI (M19-MEL melanoma): 11.9 µM | GI50 (HT29 colon): 2.64 µM | TGI (HT29 colon): > 100 µM | GI50 (SNB-78 CNS): 6.6 µM | TGI (SNB-78 CNS): > 100 µM | GI50 (XF 498 CNS): 1.09 µM | TGI (XF 498 CNS): 9.25 µM | GI50 (K-562 leukemia): 0.84 µM | TGI (K-562 leukemia): > 100 µM | GI50 (SF-539 CNS): 0.0449 µM | TGI (SF-539 CNS): 0.357 µM | GI50 (LXFL 529 NSCLC): 4.33 µM | TGI (LXFL 529 NSCLC): > 100 µM | GI50 (HCT-116 colon): 0.431 µM | TGI (HCT-116 colon): 7.11 µM | GI50 (HL-60(TB) leukemia): 0.13 µM | TGI (HL-60(TB) leukemia): 1.3 µM | GI50 (HCC-2998 colon): 2.02 µM | TGI (HCC-2998 colon): 13.1 µM | GI50 (DMS 273 small cell lung): 0.0605 µM | TGI (DMS 273 small cell lung): 2.02 µM | GI50 (SNB-75 CNS): 0.151 µM | TGI (SNB-75 CNS): 1.12 µM | GI50 (CAKI-1 renal): 0.0864 µM
